Consider one compound from patent publication US10780094B2, “Use of carbonic anhydrase inhibitors for treatment of neurological and psychiatric disorders” (New York University, priority 2016, dated 2020).

For data set [1], the target named is T1, Aβ42 and Aβ40-Q22 (Homo sapiens, UniProt P05067, E693Q).
T1 construct: purchased James I. Elliott at Yale University (custom chemical peptide synthesis)
Nature of the data set: Thioflavin T binding assay of Aβ aggregation. Particulars: 100 or 300 μM MTZ; aggregation up to 3 days. Here is the method: Binding of the different Aβ peptides to Thioflavin-T was monitored by fluorescence evaluation, as described (Fossati et al., 2010; Walsh et al., 1999). Briefly, after peptide aggregation at 50 μM concentration in culture media in the presence or absence of MTZ, 6 μl aliquots from each of the time-points were added to 184 μl of 50 mM Tris-HCl buffer, pH 8.5, and 10 μl of 0.1 mM Thioflavin-T (Sigma). Fluorescence was recorded for 300 s in a LS-50B luminescence spectrometer (Perkin Elmer, Waltham, Mass.) with excitation and emission wavelengths of 435 and 490 nm (slit width 10 nm), respectively, as described (Solito et al., 2009; Viana et al., 2009).

The target in data set [2] is T1, Aβ42 and Aβ40-Q22. Nature of the data set: Native gel electrophoresis and Western blot of Aβ aggregation species. Particulars: presence or absence of the CAI; 1 hour, 1 day, 3 days. Here is the method:
Electrophoretic analysis for assessment of peptide aggregation in the presence or absence of MTZ was performed under native conditions using 5-30% gradient polyacrylamide gels, in absence of SDS, using 25 mM Tris/glycine, pH 8.8, as running buffer, as previously described (Fossati et al., 2010). Aβ oligomerization patterns were visualized by subsequent WB analysis. Briefly, proteins were electrotransferred to nitrocellulose membranes ([…] pore size; Hybond-ECL, GE Healthcare Life Sciences, Piscataway, N.J.) at 400 mA for 2.5 h, using 10 mM 3-cyclohexylamino-1-propanesulfonic acid (CAPS; Sigma) buffer, pH 11.0, containing 10% (v/v) methanol. After blocking with 5% nonfat milk in TBS containing 0.1% Tween 20 (TBST), membranes were immunoreacted with a combination of mouse monoclonal anti-Aβ antibodies 4G8 (epitope: residues Aβ18-22) and 6E10 (epitope: residues Aβ3-8), both from Covance (Princeton, N.J.), at 1:3000 dilution each, followed by HRP-labeled anti-mouse IgG and ECL chemistry (Fossati et al., 2010).
Background: A western blot detects proteins with antibodies after separation by electrophoresis.

In data set [3] the test system is mitochondria isolated from glial cells. The data set is described as follows: Mitochondrial H2O2 production (Amplex Red) after Aβ challenge. It counts as cell-based, human. Here is the method:
Production of H2O2 from isolated mitochondria was measured using Amplex Red Hydrogen Peroxide/Peroxidase Assay (Life Technologies). Cells were treated with Aβ peptides, in the presence or absence of MTZ. After 16 hours of treatment, the mitochondrial fraction was separated from nuclear and cytoplasmic fractions as previously described (Fossati et al., 2013). Protein concentration in the mitochondrial fraction was measured by BCA assay (Thermo Scientific, Rockford, Ill.), in order to include the same amount of mitochondria in each sample. Functional mitochondrial fractions were distributed in a 96 well plate with Reaction Buffer and Amplex Red solution following the manufacturer's specifications. The plate was incubated in the dark at room temperature for 30 minutes before colorimetric evaluation of the Amplex Red reaction at 560 nm.

The next data set has as its system C57BL/6 mice. The data set is described as follows: Intra-hippocampal Aβ40-Q22 injection, immunohistochemistry. It counts as in vivo, mouse. Here is the method: Six months old C57BL/6 mice were anesthetized with a mixture of ketamine and xylazine (120 and 10 mg/Kg respectively) i.p. and fixed to a stereotaxic frame (David Kopf Instruments, Tujunga, CaliforniaKopf). The body temperature was maintained stable with the use of a heating pad (Harvard Apparatus, Holliston, Mass.) for the total time of the surgery. A volume of 1 μl of a 10 μM fresh solution of Aβ40-Q22—chosen for its propensity to form toxic oligomers, and not fibrils, in the first few hours after solubilization—(Fossati et al., 2010) in PBS, or the vehicle for control mice, was injected in the hippocampus (Coordinates: AP=−2.7, L=−3.0 and H=−4.0, according to the Atlas of Paxinos and Franklin) at a flow rate of 0.1 μl/min. The needle (Hamilton 701 RN 10 μl syringe, RN needle 30/2″/3S) was left in place for two minutes and then slowly withdrawn. In the cases in which MTZ treatment was administered, mice were injected intraperitoneally with a solution of MTZ (20 mg/kg) 1 h before the Aβ40-Q22 intrahippocampal injection. At the selected time after injections, the animals were sacrificed by trans-cardiac perfusion (medium flow pump, Fisher Scientific 13-876-2, 10 ml/min flow rate) with PBS for 2 minutes followed by 4% paraphormaldehyde for 5 minutes. Brains were then removed from the skull and postfixed in 4% paraphormaldehyde for 2 h at 4° C. […] Brains were then washed in PBS, assembled in a plastic mold with Tissue-Tek O.C.T. compound (Fisher Scientific), and frozen with a mixture of liquid nitrogen and isopenthanol. Serial cryostat sections of 8 μm thickness were collected on positively charged microscope slides (Fisher Scientific) and stored at −80° C. until further immunohistochemical analysis.
For immunohistochemical staining, slices were warmed to RT for 5′ prior to use, rinsed in PBS and blocked with Mouse on Mouse (MOM) blocking reagent (2 drops in 2.5 ml of PBS, Vector Laboratories, Burlingame, Calif.) for 20 minutes. Incubation with the rabbit monoclonal antibody against active caspase-3 (Cell Signaling Technology) was performed overnight at 4° C. in PBS containing 0.1% triton X-100 and 5 mg/ml BSA. The day after, the sections were washed three times with PBS and incubated in Alexa Fluor 488- or 633-conjugated anti-rabbit IgG (Life Technologies; 1:200 in PBST with 5 mg/ml BSA; 1 h at RT), followed by primary anti-Aβ 6E10 (1:200 in PBS+MOM for 2 hours at RT), and by secondary Alexa Fluor 568 anti-mouse IgG. Finally, the slices were washed and the DNA counterstained with TO-PRO (Life Technologies) 1:1000 for 10 min, or with NeuN green neuronal staining (1:100 in PBS for 1 hour, Millipore, Temecula, Calif.). For staining of active microglial cells, tissue sections were incubated with anti IBA1 goat antibody (Abcam, Cambridge, Mass.) 1:200 in PBS containing 0.1% Triton and 5 mg/ml BSA for 1 hour, followed by Alexa Fluor 488 anti-goat IgG (1 hour). After washing, slides were mounted with an aqueous mounting medium (Vector Laboratories). Images were acquired in a Zeiss LSM 510 confocal microscope using 40× or 100× oil lens and processed using Image J and Adobe Photoshop. Images were acquired maintaining constant exposure for all samples across single experiments. For quantifications, stained brain slices corresponding to the injection site area of 3 or more animals were quantified with Image J. The total area of NeuN, caspase 3, Aβ and IBA1 positive cells was quantified and compared between different treatments.

The mark [4] stands for this setting: MTZ IP one hour before peptide injection.

On to `CC(=O)/N=c1/sc(S(N)(=O)=O)nn1C` [MTZ, methazolamide], for which, at Aβ42 and Aβ40-Q22 [1], the “Aβ fibrillization by Thioflavin T fluorescence” value is listed as “no significant difference in fibrillization”. Further, the “Aβ aggregation species in native gels” value on Aβ42 and Aβ40-Q22 [2] is listed as “did not differ”. Moreover, the “Aβ-induced increase in H2O2 production by isolated mitochondria” value in data set [3] (Example 1, Aβ with MTZ) is listed as “completely reverted”. Further, the “H2O2 production, drug alone” value in data set [3] (MTZ alone, untreated cells) is on record as “did not have any effect”. Further, the “activation of caspase-3 induced by Aβ in CA1 neurons” value in the data set on C57BL/6 mice (20 mg/Kg MTZ IP 1 hour prior to Aβ40-Q22 injection, sacrificed 4 hours after) was “prevented”. The “Aβ staining in the injected hemisphere” value in the data set on C57BL/6 mice (Aβ in the presence or absence of MTZ, FIG. 9A) is given as “similarly increased”. Also, the “active-caspase 3 staining in IBA1- and Aβ-positive microglia” value in the data set on C57BL/6 mice (MTZ IP before Aβ injection) is “notably lower”. Also, in the data set on C57BL/6 mice (setting [4]), the “caspase activation in the vicinity of the injection site” value is on record as “significantly reduced” and the “loss of NeuN immunoreactivity in the vicinity of the injection site” value was “significantly reduced”. In the data set with C57BL/6 mice (inferred from efficacy after IP dosing), the “brain entry after systemic administration” value is given as “can enter the mouse brain”.
